Laboratory results from PMC9577195, “Pharmacokinetics, bioavailability, and plasma protein binding study of glytrexate, a novel multitarget antifolate” (Frontiers in Pharmacology, 2022).
Where “and” joins values, the source holds several entries; their conditions need not be identical. Equal entries are not always repeated. Where two headings read alike, the source gives them in different places.

Tests used:
[1] = Pharmacokinetics and bioavailability in rats after single oral and intravenous doses; format: in vivo, Sprague-Dawley rats; details: rat; for AUC(0-inf) / Cmax / half-life / AUC / MRT last / bioavailability / CL/F / Tmax: male, Sprague-Dawley, plasma; for AUC: read-out: AUC0-tn; for MRT last: read-out: MRT0-t; for CL/F / Tmax: po
Method: Pharmacokinetic and bioavailability studies were carried out in twenty-four male Sprague–Dawley rats. The rats were randomly divided into four groups (n = 6). All of them were fasted for 12 h before administration and were allowed to drink freely. Approximately 300 μl of blood was collected from the posterior canthus venous plexus of each rat into heparinized tubes at 0.1, 0.16, 0.25, 0.5, 1, 2, 4, 8, 12, and 24 h after a single oral administration (i.g.) (12.5, 25, and 50 mg/kg) or at 0.03 h, 0.08, 0.25, 0.5, 1, 2, 4, 6, 8, 12, and 24 h after a single i.v. injection (2 mg/kg). The blood samples were processed to obtain the plasma via centrifugation at 3500 rpm for 10 min and then stored at −80°C until LC–MS/MS analysis.
The plasma samples obtained were processed using the method described in Section 2.4 and then analyzed using the established LC–MS/MS method. The data were processed using MultiQuant 3.0 software. According to the results of the blood drug concentration measurement in rats, the noncompartmental model in DAS 3.2.8 software was used to calculate the corresponding pharmacokinetic parameters, including peak time (Tmax), elimination half-life (T1/2), area under the drug-time curve (AUC0-t, AUC0-∞), maximum plasma concentration (Cmax), apparent volume of distribution (Vz/F), clearance rate (Clz/F), and average residence time (MRT0-t). GraphPad Prism 8 software was used to construct the trend chart of the changes in various parameters in plasma samples based on the measurements to analyze the possible pharmacokinetic characteristics of glytrexate.
If glytrexate has linear kinetic characteristics, the absolute bioavailability can be calculated according to the bioavailability formula, Fabs=(AUCT·Div)/(AUCiv·DT) × 100%, where AUC represents the area under the plasma concentration-time curve. The subscripts T and iv represent oral and intravenous injection, respectively, and D represents the administered dose. The data obtained in the study are expressed as the mean values plus or minus the standard deviation.

[2] = Plasma protein binding rate by ultrafiltration, rat plasma; format: in vitro ADME
Method: The glytrexate stock solution was diluted with 20% methanol (1% formic acid) to three mass concentrations of 50, 100, and 200 μg/ml for use. One hundred microliters of glytrexate solution of the corresponding concentration (3 duplicates each in parallel) was added to 900 μl of rat/human plasma, vortexed and mixed well to prepare plasma samples with plasma concentrations of 5, 10, and 20 μg/ml.
The plasma sample was placed in a constant temperature water bath at 37°C for a certain period to obtain an incubation solution. After the incubation solution was removed, it was placed on ice to maintain a low temperature, transferred to a filtrate tube (500 μl), and placed in a low-temperature refrigerated centrifuge at 4°C and 14,000 rpm for 20 min to obtain filtrate.
The test tube containing the drug concentration was incubated in a constant temperature water bath at 37°C. Each sample was obtained at 10 min, 30 min, 60 min, 120 min, 240 min, and 360 min and the drug concentration before and after ultrafiltration was determined. The plasma protein binding rate (%) = [(Cincubation solution-CUltrafiltrate)/Cincubation solution]×100%. GraphPad Prism 8 software was used to perform a one-way analysis of variance on the plasma protein binding rate of glytrexate between different mass concentrations in the same species.

[3] = Metabolic stability in human liver microsomes; format: in vitro ADME; details: 37°C
Method: The test tube containing the drug concentration was incubated in a constant temperature water bath at 37°C. Each sample was obtained at 0, 0.5, 1.0, 1.5, 2.0, and 3.0 h, and the drug concentration was measured.
The metabolic stability of glytrexate was determined by incubation with human liver microsomes at 37°C. The reaction in the incubation system containing 10 μl of glytrexate (1 mg/ml), 50 μl of liver microsomes (1 mg/ml), and 10 μl of PBS (pH 7.4) was initiated by the addition of 30 μl of NADPH after 5 min of preincubation. The total incubation volume was 100 μl. The reaction was terminated at predefined time points (0, 0.5, 1, 1.5, 2, and 3 h). The incubations were conducted in triplicate.
Fifty microliters of the above solution was accurately drawn at different incubation time points, and 155 μl of ice-cold methanol (1% formic acid) and 5 μl of IS solution were added. The mixture was vortexed for 60 s and centrifuged at 14,000 rpm for 10 min. […] An appropriate amount of the supernatant was placed into the sample vial, and analyzed. […]
All samples were analyzed using the established LC‒MS/MS method, and MultiQuant 3.0 software was used for data processing. The glytrexate concentration at each time point was calculated, the remaining percentage was calculated, and the concentration change trend was analyzed.

SMILES: Nc1nc2[nH]c(CC(=O)NCC(=O)N[C@@H](CCC(=O)O)C(=O)O)cc2c(=O)[nH]1 [glytrexate, (S)-2-{2-[2-(2-amino-4-oxo-4,7-dihydro-3H-pyrrolo [2,3-d]pyrimidin-6-yl)-acetylamino]-acetylamino}-pentanedioic acid]
- AUC(0-inf) ([1]; intravenous 2 mg/kg): 10200 ± 1710 ng·h/mL
- Cmax ([1]; intravenous 2 mg/kg): 17600 ± 767 ng/mL
- half-life ([1]; intravenous 2 mg/kg): 2.78 ± 0.26 h
- AUC ([1]; intravenous 2 mg/kg): 10200 ± 1710 ng·h/mL
- MRT last ([1]; intravenous 2 mg/kg): 0.91 ± 0.05 h
- AUC(0-inf) ([1]; oral 12.5 mg/kg): 370 ± 26 ng·h/mL
- Cmax ([1]; oral 12.5 mg/kg): 107 ± 12.1 ng/mL
- half-life ([1]; oral 12.5 mg/kg): 2.15 ± 0.16 h
- bioavailability ([1]; oral 12.5 mg/kg vs intravenous 2 mg/kg, read-out: F (bioavailability)): 0.57 ± 0.08%
- AUC ([1]; oral 12.5 mg/kg): 362 ± 24.6 ng·h/mL
- MRT last ([1]; oral 12.5 mg/kg): 3.12 ± 0.14 h
- AUC(0-inf) ([1]; oral 25 mg/kg): 750 ± 30.2 ng·h/mL
- Cmax ([1]; oral 25 mg/kg): 496 ± 19.8 ng/mL
- half-life ([1]; oral 25 mg/kg): 2.25 ± 0.093 h
- bioavailability ([1]; oral 25 mg/kg vs intravenous 2 mg/kg, read-out: F (bioavailability)): 0.59 ± 0.06%
- AUC ([1]; oral 25 mg/kg): 750 ± 30.2 ng·h/mL
- MRT last ([1]; oral 25 mg/kg): 2.95 ± 0.16 h
- AUC(0-inf) ([1]; oral 50 mg/kg): 2960 ± 190 ng·h/mL
- Cmax ([1]; oral 50 mg/kg): 1290 ± 109 ng/mL
- half-life ([1]; oral 50 mg/kg): 2.66 ± 0.15 h
- bioavailability ([1]; oral 50 mg/kg vs intravenous 2 mg/kg, read-out: F (bioavailability)): 1.15 ± 0.07%
- AUC ([1]; oral 50 mg/kg): 2960 ± 189 ng·h/mL
- MRT last ([1]; oral 50 mg/kg): 3.16 ± 0.096 h
- bioavailability ([1]; oral dose range 12.5–50 mg/kg, read-out: oral bioavailability): 0.57 to 1.15%
- CL/F ([1]; 12.5 mg/kg, oral 12.5 mg/kg): 565 mL/min/kg
- Tmax ([1]; 12.5 mg/kg, oral 12.5 mg/kg, read-out: Tmax): 0.5 h
- CL/F ([1]; 25 mg/kg, oral 25 mg/kg): 556 mL/min/kg
- Tmax ([1]; 25 mg/kg, oral 25 mg/kg, read-out: Tmax): 0.5 h
- CL/F ([1]; 50 mg/kg, oral 50 mg/kg): 282 mL/min/kg
- Tmax ([1]; 50 mg/kg, oral 50 mg/kg, read-out: Tmax): 0.5 h
- Tmax ([1]; 50 mg/kg, single oral administration 12.5, 25 and 50 mg/kg, read-out: Tmax (time of peak blood concentration)): 0.5 h
- intravenous AUC of glytrexate relative to pemetrexed ([1]; glytrexate 2 mg/kg vs pemetrexed 10 mg/kg): approximately 1.63 fold
- intravenous T1/2 of glytrexate relative to pemetrexed ([1]; intravenous): approximately 5 fold
- Cl/F ([1]; intravenous 2 mg/kg): 3.33 ± 0.5 mL/min/kg
- V/F ([1]; intravenous 2 mg/kg): 0.80 ± 0.15 L/kg
- Cl/F ([1]; oral 12.5 mg/kg, 12.5 mg/kg): 564.8 ± 42.8 mL/min/kg
- V/F ([1]; oral 12.5 mg/kg, 12.5 mg/kg): 104.724 ± 6.709 L/kg and 104.72 ± 6.71 L/kg
- Cl/F ([1]; oral 25 mg/kg, 25 mg/kg): 556.2 ± 22 mL/min/kg
- V/F ([1]; oral 25 mg/kg, 25 mg/kg): 108.42 ± 7.698 L/kg and 108.42 ± 7.70 L/kg
- V/F ([1]; oral 50 mg/kg, 50 mg/kg): 64.832 ± 4.529 L/kg and 64.83 ± 4.53 L/kg
- time of highest plasma concentration ([1]; single i.v. injection 2 mg/kg): 0.03 h
- fraction unbound at 30 min, 5 μg/ml ([2]; 5 μg/ml, 37°C, 30 min incubation, ultrafiltration): 0.863
- fraction unbound at 30 min, 10 μg/ml ([2]; 10 μg/ml, 37°C, 30 min incubation, ultrafiltration): 0.813
- fraction unbound at 30 min, 20 μg/ml ([2]; 20 μg/ml, 37°C, 30 min incubation, ultrafiltration): 0.947
- fraction unbound at 30 min ([2]; over 5, 10 and 20 μg/ml): > 0.7
- metabolic stability in human liver microsomes (in words) ([3]; up to 3 h): good microsomal stability
- half-life at 0.1 mg/ml ([3]; human, liver microsomes, pH 7.4, NADPH, regression of ln remaining vs incubation time, read-out: half-life (t1/2) in human liver microsomes): 1.83 h
